Where “and” joins values, the source holds several entries; their conditions need not be identical. Identical values can stand only once. Inconclusive results and toxic doses are left out.

We go through 14 compounds from PubChem BioAssay AID248 (DTP/NCI, 2004).

The assay has as its system L1210 leukemia ip in BDF1 mice, survival T/C. As to the kind of experiment: NCI In Vivo Anticancer Drug Screen. Data for tumor model L1210 Leukemia (intraperitoneal) in B6D2F1 (BDF1) mice. The conditions noted are these: endpoint: mean survival time, higher = longer survival. Put shortly:
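Transplanted-tumor mice were given test agent; controls received vehicle only. Survival readings from the two groups were divided (treated over control).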

The mark [1] stands for this setting: dose: 100.0 mg/kg/injection, schedule: Q01DX009 (ip), vehicle: saline with Tween-80.
Setting [2] is: dose: 200.0 mg/kg/injection, schedule: Q01DX009 (ip), vehicle: saline with Tween-80.
The mark [3] stands for this setting: dose: 400.0 mg/kg/injection, schedule: Q01DX009 (ip), vehicle: saline with Tween-80.
[4] abbreviates: dose: 100.0 mg/kg/injection, schedule: Q04DX003 (ip), vehicle: Klucel (hydroxypropylcellulose) (HPC).
[5] abbreviates: dose: 200.0 mg/kg/injection, schedule: Q04DX003 (ip), vehicle: Klucel (hydroxypropylcellulose) (HPC).
Setting [6] is: dose: 400.0 mg/kg/injection, schedule: Q04DX003 (ip), vehicle: Klucel (hydroxypropylcellulose) (HPC).
Where [7] appears, read: dose: 100.0 mg/kg/injection, schedule: Q04DX002 (ip), vehicle: Klucel (hydroxypropylcellulose) (HPC).
[8] abbreviates: dose: 200.0 mg/kg/injection, schedule: Q04DX002 (ip), vehicle: Klucel (hydroxypropylcellulose) (HPC).

For `N#CCCN1CCOCC1`, the T/C is, setting by setting: (dose: 100.0 mg/kg/injection, schedule: Q01DX009 (ip), vehicle: saline) 93 % of control; (dose: 100.0 mg/kg/injection, schedule: Q04DX003 (ip), vehicle: saline) 97 % of control; (dose: 200.0 mg/kg/injection, schedule: Q01DX009 (ip), vehicle: saline) 97 % of control; (dose: 200.0 mg/kg/injection, schedule: Q04DX003 (ip), vehicle: saline) 95 % of control; (dose: 400.0 mg/kg/injection, schedule: Q01DX009 (ip), vehicle: saline) 95 % of control; (dose: 400.0 mg/kg/injection, schedule: Q04DX003 (ip), vehicle: saline) 105 % of control.
Turning to `CN(C)C(=O)c1cc(NC(=O)c2ccc(C(=O)Nc3cc(C(=O)N(C)C)cc(C4=NCCN4)c3)cc2)cc(C2=NCCN2)c1`, the T/C runs as follows: (dose: 7.5 mg/kg/injection, schedule: Q01DX015 (ip), vehicle: methylcellulose (MC)) 98 % of control; (dose: 15.0 mg/kg/injection, schedule: Q01DX015 (ip), vehicle: methylcellulose (MC)) 98 % of control and 108 % of control; (dose: 60.0 mg/kg/injection, schedule: Q01DX015 (ip), vehicle: methylcellulose (MC)) 98 % of control.
With `CC1CN=C(c2ccc(NC(=O)c3ccc(C(=O)Nc4ccc(C5=NCC(C)N5)cc4)cc3)cc2)N1` (centres undefined), the T/C was 100 % of control (dose: 0.5 mg/kg/injection, schedule: Q01DX Z (ip), vehicle: carboxymethylcellulose (CMC)); 117 % of control (dose: 1.0 mg/kg/injection, schedule: Q01DX Z (ip), vehicle: carboxymethylcellulose (CMC)); 119 % of control (dose: 1.0 mg/kg/injection, schedule: Q01DX Z (ip), vehicle: saline); 198 % of control (dose: 1.9 mg/kg/injection, schedule: Q01DX Z (ip), vehicle: carboxymethylcellulose (CMC)); 173 % of control and 193 % of control (dose: 2.9 mg/kg/injection, schedule: Q01DX Z (ip), vehicle: carboxymethylcellulose (CMC)); 228 % of control (dose: 3.8 mg/kg/injection, schedule: Q01DX Z (ip), vehicle: carboxymethylcellulose (CMC)). Further, the T/C (dose: 4.3 mg/kg/injection, schedule: Q01DX Z (ip), vehicle: carboxymethylcellulose (CMC)) was 157 % of control; the T/C (dose: 6.5 mg/kg/injection, schedule: Q01DX Z (ip), vehicle: carboxymethylcellulose (CMC)) is 207 % of control; the T/C (dose: 7.5 mg/kg/injection, schedule: Q01DX Z (ip), vehicle: carboxymethylcellulose (CMC)) was 337 % of control; the T/C (dose: 9.7 mg/kg/injection, schedule: Q01DX Z (ip), vehicle: carboxymethylcellulose (CMC)) was 205 % of control; the T/C (dose: 15.0 mg/kg/injection, schedule: Q01DX Z (ip), vehicle: carboxymethylcellulose (CMC)) is 243 % of control; the T/C (dose: 30.0 mg/kg/injection, schedule: Q01DX Z (ip), vehicle: carboxymethylcellulose (CMC)) was 175 % of control. For the same compound, the T/C runs as follows: (dose: 30.0 mg/kg/injection, schedule: Q01DX Z (oral), vehicle: carboxymethylcellulose (CMC)) 97 % of control; (dose: 32.8 mg/kg/injection, schedule: Q01DX Z (ip), vehicle: carboxymethylcellulose (CMC)) 151 % of control; (dose: 60.0 mg/kg/injection, schedule: Q01DX Z (ip), vehicle: saline) 119 % of control; (dose: 60.0 mg/kg/injection, schedule: Q01DX Z (oral), vehicle: carboxymethylcellulose (CMC)) 94 % of control; (dose: 62.5 mg/kg/injection, schedule: Q## X010 (oral), vehicle: saline) 102 % of control; (dose: 74.0 mg/kg/injection, schedule: Q01DX Z (ip), vehicle: carboxymethylcellulose (CMC)) 114 % of control. In addition, the T/C (dose: 111.0 mg/kg/injection, schedule: Q01DX Z (ip), vehicle: carboxymethylcellulose (CMC)) was 101 % of control; the T/C (dose: 120.0 mg/kg/injection, schedule: Q01DX Z (ip), vehicle: saline) was 114 % of control; the T/C (dose: 120.0 mg/kg/injection, schedule: Q01DX Z (oral), vehicle: carboxymethylcellulose (CMC)) was 97 % of control; the T/C (dose: 125.0 mg/kg/injection, schedule: Q## X010 (oral), vehicle: saline) is 102 % of control; the T/C (dose: 240.0 mg/kg/injection, schedule: Q01DX Z (oral), vehicle: carboxymethylcellulose (CMC)) is 94 % of control; the T/C (dose: 250.0 mg/kg/injection, schedule: Q## X010 (oral), vehicle: saline) was 102 % of control. The T/C is 117 % of control (dose: 375.0 mg/kg/injection, schedule: Q01DX Z (ip), vehicle: carboxymethylcellulose (CMC)) and 103 % of control (dose: 500.0 mg/kg/injection, schedule: Q## X010 (oral), vehicle: saline).
On to `CCCOC(=O)C1OC12CCCCC2` (centres undefined), for which the T/C is, setting by setting: under setting [1], 103 % of control; under setting [2], 100 % of control; under setting [3], 103 % of control.
Turning to `CCNC(=O)C(=O)c1ccccc1NC(C)=O`, the T/C reads like this: under setting [4], 99 % of control; under setting [5], 100 % of control; under setting [6], 96 % of control.
As for `CCOC(=O)c1c(-c2ccc([N+](=O)[O-])cc2)cn(-c2ccccc2)c1C`, the T/C under setting [7] is 91 % of control; the T/C under setting [8] was 97 % of control; the T/C (dose: 400.0 mg/kg/injection, schedule: Q04DX002 (ip), vehicle: Klucel (hydroxypropylcellulose) (HPC)) was 87 % of control.
Take `O=S1(=O)C(C(O)(c2ccccc2)c2ccccc2)CCC1C(O)(c1ccccc1)c1ccccc1` (centres undefined): the T/C runs as follows: (dose: 100.0 mg/kg/injection, schedule: Q01DX009 (ip), vehicle: Klucel (hydroxypropylcellulose) (HPC)) 98 % of control; under setting [4], 102 % of control; (dose: 200.0 mg/kg/injection, schedule: Q01DX009 (ip), vehicle: Klucel (hydroxypropylcellulose) (HPC)) 98 % of control; under setting [5], 93 % of control; (dose: 400.0 mg/kg/injection, schedule: Q01DX009 (ip), vehicle: Klucel (hydroxypropylcellulose) (HPC)) 93 % of control; under setting [6], 105 % of control.
As for `Nc1c(Cl)c(Cl)c2c(c1Cl)C(=O)c1cc(Cl)ccc1-2`, the T/C was 97 % of control (dose: 100.0 mg/kg/injection, schedule: Q01DX001 (ip), vehicle: carboxymethylcellulose (CMC)); 108 % of control (dose: 200.0 mg/kg/injection, schedule: Q01DX001 (ip), vehicle: carboxymethylcellulose (CMC)); 105 % of control (dose: 400.0 mg/kg/injection, schedule: Q01DX001 (ip), vehicle: carboxymethylcellulose (CMC)).
`Cc1cccc(NC(=O)c2c(Cl)c(Cl)c(Cl)c(Cl)c2C(=O)O)c1C`: the T/C runs as follows: under setting [7], 91 % of control; under setting [8], 100 % of control.
On to `COc1ccc(C(=O)CC(O)(C(F)(F)F)C(F)(F)F)cc1F`, for which the T/C runs as follows: under setting [4], 103 % of control; under setting [5], 106 % of control; under setting [6], 95 % of control.
On to `O=C1OC(c2ccccc2)(c2ccccc2)c2cccc3cccc1c23`, for which the T/C is 101 % of control under setting [1], 95 % of control under setting [2] and 91 % of control under setting [3].
In the case of `O=C1C(c2ccccc2)CN1CC1CCCCC1` (centres undefined), the T/C is 98 % of control (dose: 100.0 mg/kg/injection, schedule: Q01DX001 (ip), vehicle: Klucel (hydroxypropylcellulose) (HPC)); 101 % of control (dose: 200.0 mg/kg/injection, schedule: Q01DX001 (ip), vehicle: Klucel (hydroxypropylcellulose) (HPC)); 95 % of control (dose: 400.0 mg/kg/injection, schedule: Q01DX001 (ip), vehicle: Klucel (hydroxypropylcellulose) (HPC)).
For `CC#CC#C/C=C1/C=CC(=O)O1`, the T/C runs as follows: (dose: 6.25 mg/kg/injection, schedule: Q01DX009 (ip), vehicle: saline) 98 % of control; (dose: 6.25 mg/kg/injection, schedule: Q04DX003 (ip), vehicle: saline) 96 % of control; (dose: 12.5 mg/kg/injection, schedule: Q01DX009 (ip), vehicle: saline) 105 % of control; (dose: 12.5 mg/kg/injection, schedule: Q04DX003 (ip), vehicle: saline) 103 % of control; (dose: 25.0 mg/kg/injection, schedule: Q01DX009 (ip), vehicle: saline) 94 % of control; (dose: 25.0 mg/kg/injection, schedule: Q04DX003 (ip), vehicle: saline) 91 % of control.
In the case of `O=C(NCCCCCCNC(=O)Nc1ccc(C2=NCCN2)cc1)Nc1ccc(C2=NCCN2)cc1`, the T/C (dose: 62.0 mg/kg/injection, schedule: Q01DX Z (ip), vehicle: carboxymethylcellulose (CMC)) was 106 % of control; the T/C (dose: 125.0 mg/kg/injection, schedule: Q01DX Z (ip), vehicle: carboxymethylcellulose (CMC)) was 92 % of control; the T/C (dose: 250.0 mg/kg/injection, schedule: Q01DX Z (ip), vehicle: carboxymethylcellulose (CMC)) was 109 % of control; the T/C (dose: 500.0 mg/kg/injection, schedule: Q01DX Z (ip), vehicle: carboxymethylcellulose (CMC)) was 102 % of control.
